Test results from patent publication US20170283859A1, “MICROFLUIDIC qRT-PCR ANALYSIS OF SINGLE CELLS” (The Trustees Of Columbia University In the City of New York, priority 2014, published 2017).

Experiments:
Assay type in all cases: cell-based
[1] = tested on: GAPDH transcript level in single MCF-7 cells; assay: Microfluidic array single-cell RT-qPCR, housekeeping gene GAPDH; details: 120 μg/mL MMS for 2.5 h
Method: During the operation of the array chip, a single analysis unit is selected through the multiplexed valves and then 4x10^6 magnetic beads are introduced (100 nL/s for 20 s) until all analysis units have beads with a syringe pump while an external magnet is held under the chambers. The amount of beads is determined according to the manufacturer's reported bead density and verified by pipetting beads onto a glass slide and counting the total amount of beads with ImageJ software. […] The resulting cDNA template for PCR is amplified (qPCR: 10 min at 95° C., followed by 40 cycles of 15 s at 95° C. and 1 min at 60° C.) while the accumulation of products is imaged on a fluorescence microscope using a hydrolysis probe/primer set (TaqMan®). […] Initially, the fluorescence of FAM is suppressed by NFQ. […] Fluorescent intensities of ROX and FAM are acquired and measured at the end of each PCR cycle (FIG. 29). […] The transcript levels of CDKN1 A and the housekeeping gene GAPDH was measured in MMS treated (120 μg/mL for 2.5 h) and untreated single MCF-7 cells using the microfluidic array. […]

[2] = tested on: CDKN1A gene expression in single MCF-7 cells; assay: Fully integrated on-chip single-cell RT-qPCR (single analysis unit device), induction of CDKN1A
Method: In this example, all steps of single-cell RT-qPCR were integrated in the device from Example 1. […] MCF-7 cells were incubated with MEM media supplemented with 10% FBS and […], and were kept at 37° C. in a humidified incubator containing 5% CO2. The Cells used herein, whether treated or not, were from the same generation of MCF-7 cells to eliminate potential generational gene expression differences. The MCF-7 cell suspension was first diluted to 10^5 cells per mL in a microcentrifuge tube, and mixed to homogenize the suspension and break up cell clusters. The homogenized cell suspension was then driven into the device through the cell inlet via a syringe pump while valves were used to manipulate the direction of the flow. The trapping structure was observed under a microscope. As all cells were directed through the cell trapping unit and the width of the channel at the protruding structure (i.e., the portion of the mold that narrows the channel) within the trapping unit (5 μm) is smaller than the average diameter of MCF-7 cells (18±2 μm), a single cell was immobilized in the trap. Once a single cell was trapped, the upstream control valve (FIG. 5) was activated while the cell washing outlet was opened to direct (the potentially cell-containing) carrier fluid away from the cell trap. On average, 1.5 cells were introduced into the device per second. Single cells were consistently trapped in the microchip in 150 seconds or less. A lysis solution (100 mM TrisHCl, pH 7.5, 500 mM LiCl, 10 mM EDTA, 1% LiDS, 5 mM dithiothreitol) was used to chemically lyse the trapped cells. By mixing oligo(dT)25 functionalized beads with the cell lysate, mRNA templates from a single cell were captured and purified on the surface of the beads. The beads were then moved back to the reaction chamber and retained by an external magnet. With the cell trapping and washing outlets closed and the upstream and downstream valves open (FIG. 5), RT reagents were pipetted into the device chamber, followed by the closure of all the inlets and outlets. Then a pulsed temperature RT protocol was carried out (10 min at 25° C. and 50 min at 42° C.). Similarly, after RT, PCR reagents were introduced into the device which simultaneously flushed away the RT reagent, while the chip was situated on a magnet to immobilize the beads. Once the PCR reagents completely filled the reaction chamber, all the outlets were sealed with plugs. Then the platform was placed on the stage of a fluorescent microscope. Each PCR process was initialized and thermocycled with the following protocols: 10 min at 95° C., followed by 35 cycles of 15 s at 95° C. and 1 min at 60° C. The gene expressions of single cells were assayed for the induction of CDKN1A using a hydrolysis probe/primer. […] The threshold was calculated to be 0.07. […]

[3] = tested on: CDKN1A transcript levels in single MCF-7 cells; assay: Microfluidic array single-cell RT-qPCR, drug induced CDKN1A expression
Method: During the operation of the array chip, a single analysis unit is selected through the multiplexed valves and then 4x10^6 magnetic beads are introduced (100 nL/s for 20 s) until all analysis units have beads with a syringe pump while an external magnet is held under the chambers. The amount of beads is determined according to the manufacturer's reported bead density and verified by pipetting beads onto a glass slide and counting the total amount of beads with ImageJ software. Next a single analysis unit is reselected with the multiplexed valves and 1.25 μL of cell-containing carrier buffer are introduced (concentration: 10^5 cells/mL, flow rate: 15 nL/s, and infusion time: 83.3 seconds) into the microfluidic device and travel through the cell trap with the first cell to reach the trapping structure becoming trapped. The width of the constriction (5 μm) is smaller than the diameter of the cells (18±2 μm) and therefore the single cell can be immobilized in the trap.
Once a single cell becomes immobilized, the back control valve is opened to allow carrier fluid, potentially containing additional cells, to bypass the trapping region and flow directly to the outlet. To further ensure that no cells remain in the outlet well, buffer is injected into the inlet well with a syringe with a 25 gauge stainless steel needle. Lysis buffer is introduced into the cell trap region of each analysis unit at a flow rate of 2 μl/min over a 5-min period to lyse the trapped cell (Sun et al. 2015). After cell lysis the beads were mixed with the cell lysate by manually moving the magnet and captured the mRNA in the cell content, based on complimentary base pairing between the polyA tails of the mRNA and the oligo(dT)25 residues covalently coupled to the bead surfaces. […] The beads were moved into the active chamber and mixed with the sample (mRNA in cell lysate or XenoRNA) by magnet-driven motion. This process is then repeated for the remaining units of the array chip until five of the RT-qPCR chambers each contain beads with bound mRNA. The sixth chamber provides no-template control.
Reverse transcription is performed in all of the six chambers to convert the mRNA into cDNA, using the bead-bound oligo(dT)25 as a primer and with the chamber temperatures controlled simultaneously in closed loop by the integrated heater and temperature sensor (RT: 10 min at 25° C. and 50 min at 42° C.). The resulting cDNA template for PCR is amplified (qPCR: 10 min at 95° C., followed by 40 cycles of 15 s at 95° C. and 1 min at 60° C.) while the accumulation of products is imaged on a fluorescence microscope using a hydrolysis probe/primer set (TaqMan®). The reagent probe/primer consists of a fluorescein amidite (FAM) reporter dye, a minor groove binder and a nonfluorescent quencher (NFQ). Initially, the fluorescence of FAM is suppressed by NFQ. During the PCR annealing process, the probe binds to a complementary region of the target template. Then, during the elongation process that follows, […] from the probe, causing the fluorescent intensity of FAM to increase. To correct for fluorescent fluctuations due to batch-to-batch changes in cavity volume and PCR component concentrations, a passive reference dye (ROX) is employed to normalize the FAM signal during real-time measurements. Fluorescent intensities of ROX and FAM are acquired and measured at the end of each PCR cycle (FIG. 29).
In this example, stress induced gene expression in single cells was investigated by treating cells with MMS, an alkylating agent, and then analyzing them by on-chip RT-qPCR. […]
In each test, five MMS treated or untreated single cells were isolated and immobilized in five separate analysis units of the array, and the remaining unit was used as a no-template control. Similar to the above mentioned protocol, after cell trapping and lysis, the two-step RT-qPCR was initialized. […]

Compound: COS(C)(=O)=O [MMS, methyl methanesulfonate]
- ΔCq (difference between Cq of treated and untreated cells), GAPDH [1]: approximately 0.5
- amount of starting templates higher than in untreated single cells ([2]; 2.5 h MMS treated MCF-7 cells): about 45 folds
- Cq value of CDKN1A RT-qPCR ([2]; MMS treated single MCF-7 cells, 2.5 h, mean of five repeated tests, untreated 32.3): 26.8
- mean Cq value lower than untreated single cells ([2]; MMS treated vs untreated single MCF-7 cells): 5.48 cycles
- transcript levels of the CDKN1A gene after MMS treatment ([2]; single MCF-7 cells): upregulated significantly
- ΔCq (difference between Cq of treated and untreated cells), CDKN1A ([3]; 120 μg/mL MMS for 2.5 h): 3.0
- mean Cq value of CDKN1A ([3]; 120 μg/mL MMS for 2.5 h, untreated 33.5): 30.5
- transcript levels of CDKN1A on treating single cells with MMS ([3]; 120 μg/mL for 2.5 h): upregulated significantly
- upregulation of CDKN1A expression vs MMS dosage ([3]; 30 to 150 μg/mL, 2.5 h): positively correlated with MMS dosage
- mean Cq value of CDKN1A ([3]; dosage 30 μg/ml, 2.5 h): 33.5
- mean Cq value of CDKN1A ([3]; dosage 150 μg/ml, 2.5 h): 29.3
- mean Cq value of CDKN1A ([3]; exposure time 0.5 h): 32.9
- mean Cq value of CDKN1A ([3]; exposure time 4.5 h): 28.1
- inter-unit Cq difference for CDKN1A ([3]; first dose step (doses from 30 to 150 μg/ml, 2.5 h)): 0.4
- inter-unit Cq difference for CDKN1A ([3]; fourth dose step (doses from 30 to 150 μg/ml, 2.5 h)): 0.7
- upregulation of CDKN1A expression vs treating time duration ([3]; range of 0.5 to 4.5 h): positively correlated with treating time duration
- inter-unit Cq difference for CDKN1A ([3]; second dose step (doses from 30 to 150 μg/ml, 2.5 h)): 0.7
- inter-unit Cq difference for CDKN1A ([3]; third dose step, 90 to 120 μg/ml, 2.5 h): 1.3
